Experiment [1] addresses T1, WDR5 (Homo sapiens, UniProt P61964).
T1 construct: N-terminal His-tagged WDR5 protein (residues 24-334), named WDR5Δ23; made in house; host or cells: E. coli Rosetta 2 (DE3)
The experiment can be described thus: fluorescence polarization (FP) based competitive binding assay to WDR5 protein. In general terms: Fluorescence polarisation rises when a labelled molecule tumbles more slowly, as on binding a larger partner.
Procedure: The plates were incubated at room temperature on a shaker for 3h, and then the mP values were measured using the Tecan Infinite M-1000 plate reader (Tecan U.S., Research Triangle Park, N.C.).

The test system of experiment [2] is MOLM-13 leukemia cells carrying MLL-AF9 fusion. The experiment can be described thus: cell viability assay (WST-8), MOLM-13. It counts as cell-based. The note with it: Homo sapiens, MOLM-13, 96 h, read-out: Cell Growth Inhibition IC50 (μM) MOLM-13. (Tetrazolium assays rely on reduction of a dye to a coloured formazan, in cell work by metabolically active cells.)
Procedure: (§1) To assess cell viability, MOLM-13 leukemia cells carrying MLL-AF9 fusion, MV4;11 leukemia cells carrying MLL-AF4 fusion or HL-60 leukemia cells carrying no MLL fusion were seeded 1×10^4 cell/well in 96-well plates and treated with an inhibitor for 4 days at different concentrations, in culture media containing 0.2% DMSO as the final concentration. Cell viability was determined using the WST-8 cell proliferation assay kit (Dojindo Molecular Technologies) according to manufacturer's instructions. Three independent experiments in triplicates were performed.

The test system of experiment [3] is MV4;11 leukemia cells carrying MLL-AF4 fusion. The experiment can be described thus: cell viability assay (WST-8), MV4;11. It counts as cell-based. Conditions: Homo sapiens, MV4-11, 96 h, read-out: Cell Growth Inhibition IC50 (μM) MV-4-11.
Procedure: as §1
The test system of experiment [4] is HL-60 leukemia cells carrying no MLL fusion. The experiment in a line: cell viability assay (WST-8), HL-60. It counts as cell-based. Conditions: Homo sapiens, HL-60, 96 h, read-out: Cell Growth Inhibition IC50 (μM) HL-60. As to the method: Cell viability was determined using the WST-8 cell proliferation assay kit (Dojindo Molecular Technologies) according to manufacturer's instructions. Three independent experiments in triplicates were performed.

[5] abbreviates: calculated from IC50 by published equation, read-out: Binding Affinity to WDR5 Ki ± SD.
Setting [6] is: read-out: Binding Affinity to WDR5 IC50 ± SD.

In general, Ki refers to a dissociation constant, usually derived from enzyme kinetics or from competition with a known ligand. The term IC50 denotes the concentration that inhibits the measured activity by half.

Where two headings read alike, the source gives them in different places. Starred links: 1 amine or outer side, 2 acyl side, 3 side chain; linkers in the order of their positions; H or OH if unused. Positions of bridges follow the written chain, without caps; N, C: chain ends. Non-standard residues stand in square brackets, D forms with d. Residues, ends and D or L forms follow the SMILES beside them. *: point of attachment. dαMeLys(Me) = CN(CCCC[C@@](C)(N[*:1])C(=O)[*:2])[*:3]; dαMeDab = C[C@](CCN[*:3])(N[*:1])C(=O)[*:2]; Arg(Me2s) = CN=C(NC)NCCC[C@H](N)C(=O)O; dPhg(4-F) = N[C@@H](C(=O)O)c1ccc(F)cc1; Arg(Me) = CNC(=N)NCCC[C@H](N)C(=O)O; d(αMeK) = C[C@@](N)(CCCCN)C(=O)O; dPhg = N[C@@H](C(=O)O)c1ccccc1; Phg = N[C@H](C(=O)O)c1ccccc1; αMeK = C[C@](N)(CCCCN)C(=O)O; Isobutyryl = CC(C)C(=O)*; dAbu = CC[C@@H](N)C(=O)O; Abu = CC[C@H](N)C(=O)O

Consider `CC[C@@H]1NC(=O)[C@H](CCCNC(=N)N)NC(=O)[C@](C)(NC(=O)C(C)C)CCNC(=O)[C@@H](c2ccccc2)NC1=O` [Cpd. No. 4, N-((3R,6S,9S,12R)-6-ethyl-9-(3-guanidinopropyl)-12-methyl-2,5,8,11-tetraoxo-3-phenyl-1,4,7,10-tetraazacyclotetradecan-12-yl)isobutyramide] (Isobutyryl-[dαMeDab]R[Abu][dPhg]; lactam 1-C), for which, in experiment [1] (setting [5]), the Ki is less than 1 nM. Besides, the IC50 in experiment [1] (setting [6]) came to 1.08 ± 0.12 nM; in experiment [2] (4 days treatment) it was 0.28 ± 0.02 µM; in experiment [3] (4 days treatment), 0.46 ± 0.02 µM; in experiment [4] (4 days treatment), 17.4 µM.

As to `CC[C@@H]1NC(=O)[C@H](CCCNC(=N)NC)NC(=O)[C@](C)(NC(=O)C(C)C)CCNC(=O)[C@H](c2ccccc2)NC1=O` [Cpd. No. 62, N-((3S,6S,9S,12R)-6-ethyl-12-methyl-9-(3-(3-methylguanidino)propyl)-2,5,8,11-tetraoxo-3-phenyl-1,4,7,10-tetraazacyclotetradecan-12-yl)isobutyramide] (Isobutyryl-[dαMeDab][Arg(Me)][Abu][Phg]; lactam 1-C), the Ki in experiment [1] (setting [5]) is less than 1 nM. For the same compound, the results for the IC50 in experiment [1] (setting [6]), in experiment [2] (4 days treatment) and in experiment [3] (4 days treatment) were 2 ± 0.1 nM, 14.3 ± 0.9 µM and 35 ± 4.4 µM, respectively.

Consider `CC[C@@H]1NC(=O)[C@H](CCCNC(=N)N)NC(=O)[C@](C)(NC(=O)C(C)C)CCCCN(C)C(=O)[C@@H](c2ccc(F)cc2)NC1=O` [Cpd. No. 66, N-((3R,6S,9S,12R)-6-ethyl-3-(4-fluorophenyl)-9-(3-guanidinopropyl)-1,12-dimethyl-2,5,8,11-tetraoxo-1,4,7,10-tetraazacyclohexadecan-12-yl)isobutyramide] (Isobutyryl-[dαMeLys(Me)]R[Abu][dPhg(4-F)]; lactam 1-C), for which the IC50 in experiment [1] stood at 1.6 ± 1 nM; in experiment [2], 16.2 ± 6.1 µM; in experiment [3], 5.2 ± 1.1 µM; in experiment [4], 60 ± 19.7 µM. The compound further gave an inhibition constant (Ki) in experiment [1] of less than 1 nM.

In the case of `CC[C@@H]1NC(=O)[C@H](CCCNC(=N)NC)NC(=O)[C@](C)(NC(=O)C(C)C)CCCCNC(=O)[C@@H](c2ccccc2)NC1=O` [Cpd. No. 68, N-((3R,6S,9S,12R)-6-ethyl-12-methyl-9-(3-(3-methylguanidino)propyl)-2,5,8,11-tetraoxo-3-phenyl-1,4,7,10-tetraazacyclohexadecan-12-yl)isobutyramide] (Isobutyryl-[d(αMeK)][Arg(Me)][Abu][dPhg]; lactam 1-C), the IC50 in experiment [1] was 1.1 ± 0.3 nM; in experiment [2], 3.6 ± 0.8 µM; in experiment [3] it was 4.3 ± 1.5 µM; in experiment [4] it was more than 100 µM. Further, the Ki in experiment [1] was less than 1 nM.

For the compound `CC[C@@H]1NC(=O)[C@H](CCCN/C(=N/C)NC)NC(=O)[C@](C)(NC(=O)C(C)C)CCCCNC(=O)[C@@H](c2ccccc2)NC1=O` [Cpd. No. 69, N-((3R,6S,9S,12R)-9-(3-((E)-2,3-dimethylguanidino)propyl)-6-ethyl-12-methyl-2,5,8,11-tetraoxo-3-phenyl-1,4,7,10-tetraazacyclohexadecan-12-yl)isobutyramide] (Isobutyryl-[d(αMeK)][Arg(Me2s)][Abu][dPhg]; lactam 1-C), the IC50 in experiment [1] came to 2.4 ± 0.7 nM; in experiment [2] it was 31.5 ± 9.8 µM; in experiment [3] it was 15.2 ± 2.9 µM; in experiment [4] it was 84.8 ± 13.2 µM. The same compound had a Ki in experiment [1] of less than 1 nM.

Consider `CC[C@H]1NC(=O)[C@@H](CCCNC(=N)N)NC(=O)[C@@](C)(NC(=O)C(C)C)CCCCNC(=O)[C@H](c2ccccc2)NC1=O` [Cpd. No. 70, N-((3S,6R,9R,12S)-6-ethyl-9-(3-guanidinopropyl)-12-methyl-2,5,8,11-tetraoxo-3-phenyl-1,4,7,10-tetraazacyclohexadecan-12-yl)isobutyramide] (Isobutyryl-[αMeK][dR][dAbu][Phg]; lactam 1-C), for which the IC50 in experiment [2], in experiment [3] and in experiment [4] was more than 100 µM throughout.

Source of the values: patent US20210130401A1, “PEPTIDOMIMETIC INHIBITORS OF THE WDR5-MLL INTERACTION” (THE REGENTS OF THE UNIVERSITY OF MICHIGAN, priority 2017, published 2021).
